Patent US5633144A, “Assay pad and method for determination of the presence of total coliforms” (priority 1994, dated 1997)
Where two headings read alike, the source gives them in different places.

Legend:
[1] = Solubility and storage stability of CPRG; assay type: physicochemical; conditions: 50 mM K-phosphate buffer containing 1 mM MgCl2, pH 7.5, 4° C.
Experimental: CPRG was dissolved in 50 mM K-phosphate buffer containing 1 mM MgCl2. […] When the beta-galactosidase catalzyed hydrolysis of CPRG occurs, the resulting product on the MetPAD™ is purple and, thus, is easily detected visibly.

[2] = cited from earlier work
beta-galactosidase [3] = target: T1, beta-galactosidase (Escherichia coli, UniProt P00722); assay type: biochemical, E. coli EW1b
T1 construct: one convenient source of beta-galactosidase is bacteria which produce this enzyme in useful amounts; endogenous in cells; host or cells: E. coli EW1b (Coli Genetic Stock Culture, Yale University), IPTG-induced, freeze-dried in trehalose, rehydrated
T1 sequence (P00722 2-1024): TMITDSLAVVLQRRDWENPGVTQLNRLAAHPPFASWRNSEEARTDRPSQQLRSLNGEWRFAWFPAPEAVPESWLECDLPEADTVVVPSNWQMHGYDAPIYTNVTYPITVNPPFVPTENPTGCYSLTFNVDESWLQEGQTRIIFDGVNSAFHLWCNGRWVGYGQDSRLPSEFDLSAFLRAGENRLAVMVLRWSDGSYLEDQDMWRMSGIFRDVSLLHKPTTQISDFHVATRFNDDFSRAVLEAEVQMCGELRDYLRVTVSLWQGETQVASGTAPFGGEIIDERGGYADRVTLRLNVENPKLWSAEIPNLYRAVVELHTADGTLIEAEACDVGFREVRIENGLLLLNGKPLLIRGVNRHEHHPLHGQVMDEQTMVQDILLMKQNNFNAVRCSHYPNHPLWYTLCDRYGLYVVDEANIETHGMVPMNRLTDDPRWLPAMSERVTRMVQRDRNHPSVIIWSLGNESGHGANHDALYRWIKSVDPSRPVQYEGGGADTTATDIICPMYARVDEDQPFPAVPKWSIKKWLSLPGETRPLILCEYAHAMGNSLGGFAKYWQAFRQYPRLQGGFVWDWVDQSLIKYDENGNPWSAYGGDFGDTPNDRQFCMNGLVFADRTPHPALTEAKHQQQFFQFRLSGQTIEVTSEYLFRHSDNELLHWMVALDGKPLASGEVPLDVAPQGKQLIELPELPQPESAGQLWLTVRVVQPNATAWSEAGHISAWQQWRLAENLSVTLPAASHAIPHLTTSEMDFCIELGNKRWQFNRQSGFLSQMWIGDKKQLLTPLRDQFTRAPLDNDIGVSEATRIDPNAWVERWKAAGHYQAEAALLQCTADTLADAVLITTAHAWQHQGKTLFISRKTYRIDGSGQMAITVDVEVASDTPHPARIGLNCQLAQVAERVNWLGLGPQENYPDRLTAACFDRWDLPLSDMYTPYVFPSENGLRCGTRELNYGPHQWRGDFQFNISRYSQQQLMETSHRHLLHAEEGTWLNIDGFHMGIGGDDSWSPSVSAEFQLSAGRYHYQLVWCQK

beta-galactosidase [4] = target: T1, beta-galactosidase; assay type: biochemical, E. coli EW1b; remark: listed apart in the source
[5] = tested on: beta-galactosidase of E. coli EW1b; assay type: biochemical; conditions: for Color intensity, trehalose medium: freeze-dried in trehalose medium (22.4% w/v); for Color intensity, distilled water: freeze-dried in distilled water
beta-galactosidase [6] = target: T1, beta-galactosidase; assay type: biochemical, E. coli EW1b; parameters: key: +++++: maximum color intensity; -: complete enzyme inactivation
E. coli EW1b cells = assay: Enhancement of beta-galactosidase production by inducer; assay type: cell-based; conditions: E. coli EW1b cells treated with inducer
Excerpt: As described above, one convenient source of beta-galactosidase is bacteria which produce this enzyme in useful amounts. Advantageously, the enzyme produced by the bacteria is readily accessible to the heavy metal and the substrate. […] Among the bacteria investigated by the applicants are E. coli C3000, E. coli EW1b, and a mixed culture of beta-galactosidase producers isolated from wastewater. E. coli C3000 is available from the American Type Culture Collection (ATCC), 12301 Parklawn Drive, Rockville, Md. 20852 USA. The culture has been assigned the accession number ATCC 15597 by the repository. E. coli EW1b is available from the Coli Genetic Stock Culture, Yale University, New Haven, Conn. The mixed culture was obtained following inoculation of LB-lactose-SDS broth with activated sludge effluent. Although these bacteria would perform well in the assay of the subject invention, E. coli C3000 was not as sensitive to heavy metal toxicity as E. coli EW1b or the mixture of beta-galactosidase producing bacteria. Moreover, due to potential problems in maintaining a mixed culture of bacteria, E. coli EW1b is the preferred microbe. […]
3. […] The bacterial suspension is then diluted with 20 ml of fresh medium, amended with 1 ml of 0.2% (w/v) solution of isopropyl-beta-thiogalactoside (IPTG) and then allowed to grow to absorbance A550 =0.4-0.5.

[7] = Stability of beta-galactosidase in freeze-dried cells; assay type: physicochemical, E. coli EW1b
Experimental: A. Preparation of freeze-dried cells
1. Stock cultures of E. coli EW1b are stored in 40% glycerol solution at -14° C. to -20° C.
2. Fifty μL of the stock culture are inoculated into 5 ml of LB-lactose medium (Bacto-tryptone: 1%; yeast extract: 0.5%; NaCl: 1.0%; K2 HPO4 : 0.15%; Lactose: 1%).
3. Cells are grown overnight at 35° C. The bacterial suspension is then diluted with 20 ml of fresh medium, amended with 1 ml of 0.2% (w/v) solution of isopropyl-beta-thiogalactoside (IPTG) and then allowed to grow to absorbance A550 =0.4-0.5.
4. Cells are centrifuged at 8000 RPM for 10 minutes.
5. The pellet is resuspended in distilled water.
6. The suspension is centrifuged for 10 minutes at 8000 RPM.
7. The suspension is resuspended in 2% trehalose to obtain an absorbance of A550 =0.2-0.25 (if using the MUGA pads for enzyme assay, an absorbance of A550 =0.10 is sufficient).
8. This suspension is dispensed in 3 ml aliquots in serum bottles.
9. The cells are frozen overnight at -40° C.
10. The frozen cells are freeze-dried for 24 hours and stored at subzero or at refrigerator temperature until used. […] Moreover, the enzyme was stable for at least 18 hours at 35° C.

[8] = 400 ppm, maximum concentration tested at which no inhibition was observed

O=S1(=O)OC(c2ccc(O)c(Cl)c2)(c2ccc(O[C@@H]3O[C@H](CO)[C@H](O)[C@H](O)[C@H]3O)c(Cl)c2)c2ccccc21 (stereo partly drawn) [CPRG, chlorophenol red-beta-D-galactopyranoside]
stability of CPRG solution [1]: stable at 4 °C for one week
solubility [2]: more than 50 mmol/L
stability ([2]; must be protected from light): stable at -20 °C

O=S(=O)([O-])[O-].[Cd+2] [Cadmium (CdSO4), Cadmium]
MIC (Minimum Inhibitory Concentration) (beta-galactosidase [3]; MetPAD): 0.2 µg/mL
Total inactivation (toxicant concentration which causes 100% inhibition of enzyme activity) (beta-galactosidase [3]; MetPAD): 1.0 mg/L
heavy metal toxicity, response of MetPAD (in words) (beta-galactosidase [3]; MetPAD, 7 heavy metals): most toxic among the metals tested
Minimum inhibitory concentration (MIC), CPRG pads (beta-galactosidase [4]; CPRG pads): 0.30 µg/mL
Minimum inhibitory concentration (MIC), fluorescent pads (beta-galactosidase [4]; Fluorescent (MUGA) pads): 0.30 µg/mL
Color intensity, trehalose medium ([5]; 1.0 ppm): -
Color intensity, trehalose medium ([5]; 1.5 ppm): -

ClC(Cl)Cl [Chloroform]
Color intensity (beta-galactosidase [6]; 3250 ppm): +++++

O.O.O.O.O.O=S(=O)([O-])[O-].[Cu+2] [Copper (CuSO4.5H2 O), Copper]
MIC (Minimum Inhibitory Concentration) (beta-galactosidase [3]; MetPAD): 0.5 µg/mL
Total inactivation (toxicant concentration which causes 100% inhibition of enzyme activity) (beta-galactosidase [3]; MetPAD): 1.0 mg/L
Minimum inhibitory concentration (MIC), CPRG pads (beta-galactosidase [4]; CPRG pads): 0.50 µg/mL
Minimum inhibitory concentration (MIC), fluorescent pads (beta-galactosidase [4]; Fluorescent (MUGA) pads): 0.25 µg/mL
Color intensity, distilled water ([5]; 0.5 ppm): +++++
Color intensity, distilled water ([5]; 0.8 ppm): +++++
Color intensity, distilled water ([5]; 1.0 ppm): +++++
Color intensity, trehalose medium ([5]; 1.0 ppm): -
Color intensity, distilled water ([5]; 1.5 ppm): +++++
Color intensity, trehalose medium ([5]; 1.5 ppm): -

C=O [Formaldehyde]
Color intensity (beta-galactosidase [6]; 925 ppm, buffered to pH = 7.0 with K-phosphate buffer): +++++

CC(C)S[C@@H]1O[C@H](CO)[C@H](O)[C@H](O)[C@H]1O [IPTG, isopropyl-beta-thiogalactoside]
beta-galactosidase production (E. coli EW1b cells): beta-galactosidase production could be enhanced

O=[N+]([O-])[O-].O=[N+]([O-])[O-].[Pb+2] [Lead (Pb(NO3)2), Lead]
MIC (Minimum Inhibitory Concentration) (beta-galactosidase [3]; MetPAD): 5.0 µg/mL
Total inactivation (toxicant concentration which causes 100% inhibition of enzyme activity) (beta-galactosidase [3]; MetPAD): 15.0 mg/L
Minimum inhibitory concentration (MIC), CPRG pads (beta-galactosidase [4]; CPRG pads): 5.00 µg/mL
Minimum inhibitory concentration (MIC), fluorescent pads (beta-galactosidase [4]; Fluorescent (MUGA) pads): 2.50 µg/mL
Color intensity, trehalose medium ([5]; 3.0 ppm): +++++
Color intensity, trehalose medium ([5]; 15.0 ppm): -
Color intensity, trehalose medium ([5]; 20.0 ppm): -

Cl[C@H]1[C@H](Cl)[C@@H](Cl)[C@@H](Cl)[C@H](Cl)[C@H]1Cl [Lindane]
Color intensity (beta-galactosidase [6]; 500 ppm): +++++

O.O.O.O.O.O.O=S(=O)([O-])[O-].[Ni+2] [Ni (NiSO4.6H2 O), Nickel]
MIC (Minimum Inhibitory Concentration) (beta-galactosidase [3]; MetPAD): 8.0 µg/mL
Total inactivation (toxicant concentration which causes 100% inhibition of enzyme activity) (beta-galactosidase [3]; MetPAD): 20.0 mg/L
Minimum inhibitory concentration (MIC), CPRG pads (beta-galactosidase [4]; CPRG pads): 8.00 µg/mL
Minimum inhibitory concentration (MIC), fluorescent pads (beta-galactosidase [4]; Fluorescent (MUGA) pads): 5.00 µg/mL

Oc1c(Cl)c(Cl)c(Cl)c(Cl)c1Cl [Pentachlorophenol]
Color intensity (beta-galactosidase [6]; [8]): +++++

Oc1ccccc1 [Phenol]
Color intensity (beta-galactosidase [6]; 3000 ppm): +++++

CCCCCCCCCCCCOS(=O)(=O)[O-].[Na+] [Sodium dodecyl sulfate]
Color intensity (beta-galactosidase [6]; 3000 ppm): +++++

Cn1cc(-c2ccccc2)c(=O)c(-c2cccc(C(F)(F)F)c2)c1 [Sonar (Fluoridone), Fluoridone]
Color intensity (beta-galactosidase [6]; [8]): +++++

O=S(=O)([O-])[O-].[Zn+2] [Zinc (ZnSO4), Zinc]
MIC (Minimum Inhibitory Concentration) (beta-galactosidase [3]; MetPAD): 0.5 to 1 µg/mL
Total inactivation (toxicant concentration which causes 100% inhibition of enzyme activity) (beta-galactosidase [3]; MetPAD): 3.0 mg/L
Minimum inhibitory concentration (MIC), CPRG pads (beta-galactosidase [4]; CPRG pads): 0.5 to 1.00 µg/mL
Minimum inhibitory concentration (MIC), fluorescent pads (beta-galactosidase [4]; Fluorescent (MUGA) pads): 0.50 µg/mL
Color intensity, distilled water ([5]; 0.5 ppm): +++++
Color intensity, trehalose medium ([5]; 0.5 ppm): +++++
Color intensity, distilled water ([5]; 1.0 ppm): +++++
Color intensity, trehalose medium ([5]; 3.0 ppm): -
Color intensity, trehalose medium ([5]; 5.0 ppm): -
Color intensity, trehalose medium ([5]; 7.5 ppm): -
Color intensity, distilled water ([5]; 10.0 ppm): -
Color intensity, trehalose medium ([5]; 10.0 ppm): -

O=[N+]([O-])c1ccc(O)cc1 [p-nitrophenol]
Color intensity (beta-galactosidase [6]; 110 ppm): +++++

Chromium [Cr (K2 Cr2 O7)]
MIC (Minimum Inhibitory Concentration) (beta-galactosidase [3]): 25.0 µg/mL
Total inactivation (toxicant concentration which causes 100% inhibition of enzyme activity) (beta-galactosidase [3]): 50.0 mg/L
Minimum inhibitory concentration (MIC), CPRG pads (beta-galactosidase [4]): 25.00 µg/mL
Minimum inhibitory concentration (MIC), fluorescent pads (beta-galactosidase [4]): 25.00 µg/mL

Mercury [Mercury (HgSO4)]
MIC (Minimum Inhibitory Concentration) (beta-galactosidase [3]; MetPAD): 0.5 µg/mL
Total inactivation (toxicant concentration which causes 100% inhibition of enzyme activity) (beta-galactosidase [3]; MetPAD): 1.0 mg/L
Minimum inhibitory concentration (MIC), CPRG pads (beta-galactosidase [4]; CPRG pads): 0.25 µg/mL
Minimum inhibitory concentration (MIC), fluorescent pads (beta-galactosidase [4]; Fluorescent (MUGA) pads): 0.25 µg/mL
Color intensity, distilled water ([5]; 0.5 ppm): +++++
Color intensity, distilled water ([5]; 1.0 ppm): +++++
Color intensity, trehalose medium ([5]; 1.0 ppm): -
Color intensity, distilled water ([5]; 1.5 ppm): +++++
Color intensity, trehalose medium ([5]; 1.5 ppm): -
Color intensity, trehalose medium ([5]; 2.0 ppm): -

beta-galactosidase: enzyme of freeze-dried E. coli EW1b cells
stability of beta-galactosidase activity of freeze-dried cells ([7]; 4° C.): stable for several weeks
stability of the enzyme ([7]; 35° C.): at least 18 hours
